In ChEMBL document CHEMBL2177026, “Acyl guanidine inhibitors of β-secretase (BACE-1): optimization of a micromolar hit to a nanomolar lead via iterative solid- and solution-phase library synthesis” (J Med Chem, 2012):
The source made the active and inactive calls. No cut-off for these calls is given here.

How the values were obtained:
[1] = Inhibition of pepsin by radioligand binding assay
[2] = biological target: T1, Cathepsin E (Homo sapiens) (UniProt P14091); assay: Inhibition of cathepsin E by radioligand binding assay
T1 sequence (whole entry): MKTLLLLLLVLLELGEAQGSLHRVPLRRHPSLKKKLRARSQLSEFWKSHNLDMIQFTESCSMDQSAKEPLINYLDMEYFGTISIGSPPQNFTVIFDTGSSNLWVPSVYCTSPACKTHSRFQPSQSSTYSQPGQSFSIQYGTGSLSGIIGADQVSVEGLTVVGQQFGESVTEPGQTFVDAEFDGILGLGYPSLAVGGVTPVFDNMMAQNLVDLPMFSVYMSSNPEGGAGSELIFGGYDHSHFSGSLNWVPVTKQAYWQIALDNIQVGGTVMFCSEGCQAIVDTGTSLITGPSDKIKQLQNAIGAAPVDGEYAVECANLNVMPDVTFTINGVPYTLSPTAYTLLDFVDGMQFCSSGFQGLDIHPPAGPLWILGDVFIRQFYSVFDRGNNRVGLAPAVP

[3] = biological target: Cathepsin D (Homo sapiens) (UniProt P07339); assay: Inhibition of cathepsin D by radioligand binding assay
[4] = biological target: T2, Beta-secretase 1 (Homo sapiens, UniProt P56817); assay: Ratio of IC50 for BACE1 in human KBV1 cells expressing APP 751 Swedish mutant in absence of tariquidar to IC50 for BACE1 in human KBV1 cells expressing APP 751 Swedish mutant in presence of tariquidar; assay type: cell-based
[5] = biological target: T2, Beta-secretase 1; assay: Inhibition of BACE1 in human KBV1 cells expressing APP 751 Swedish mutant assessed as inhibition of amyloid beta (1 to 40) production after overnight incubation by ELISA in presence of tariquidar; assay type: cell-based
[6] = biological target: T2, Beta-secretase 1; assay: Inhibition of BACE1 in human KBV1 cells expressing APP 751 Swedish mutant assessed as inhibition of amyloid beta (1 to 40) production after overnight incubation by ELISA in absence of tariquidar; assay type: cell-based
[7] = Drug uptake in rat CSF at 40 mg/kg, sc preadministered with ABT measured after 5 hrs by LC/MS/MS analysis; assay type: ADME, organism-based, Cerebrospinal fluid; set-up: dose 40 mg/kg, route subcutaneous; settings: read-out: Drug uptake
[8] = Drug uptake in rat CSF at 15 mg/kg, sc after 5 hrs by LC/MS/MS analysis; assay type: ADME, organism-based, Cerebrospinal fluid; set-up: dose 15 mg/kg, route subcutaneous; settings: read-out: Drug uptake
[9] = Drug uptake in rat CSF at 5 mg/kg, sc measured after 5 hrs by LC/MS/MS analysis; assay type: ADME, organism-based, Cerebrospinal fluid; set-up: dose 5 mg/kg, route subcutaneous; settings: read-out: Drug uptake
[10] = Drug uptake in rat brain at 40 mg/kg, sc preadministered with ABT measured after 5 hrs by LC/MS/MS analysis; assay type: ADME, organism-based; set-up: dose 40 mg/kg, route subcutaneous; settings: read-out: Drug uptake
[11] = Drug uptake in rat brain at 15 mg/kg, sc after 5 hrs by LC/MS/MS analysis; assay type: ADME, organism-based; set-up: dose 15 mg/kg, route subcutaneous; settings: read-out: Drug uptake
[12] = Drug uptake in rat brain at 5 mg/kg, sc measured after 5 hrs by LC/MS/MS analysis; assay type: ADME, organism-based; set-up: dose 5 mg/kg, route subcutaneous; settings: read-out: Drug uptake
[13] = Plasma concentration in rat at 40 mg/kg, sc preadministered with ABT measured after 5 hrs by LC/MS/MS analysis; assay type: ADME, organism-based; set-up: dose 40 mg/kg, route subcutaneous
[14] = Plasma concentration in rat at 5 mg/kg, sc measured after 5 hrs by LC/MS/MS analysis; assay type: ADME, organism-based; set-up: dose 5 mg/kg, route subcutaneous
[15] = Plasma concentration in rat at 15 mg/kg, sc after 5 hrs by LC/MS/MS analysis; assay type: ADME, organism-based; set-up: dose 15 mg/kg, route subcutaneous
[16] = test system: Rattus norvegicus; assay: Antialzheimer activity in rat assessed as amyloid beta (1 to 40) level in CSF at 40 mg/kg, sc preadministered with ABT measured after 5 hrs by ELISA relative to control; assay type: functional; settings: route subcutaneous
[17] = test system: Rattus norvegicus; assay: Antialzheimer activity in rat assessed as amyloid beta (1 to 40) level in CSF at 15 mg/kg, sc measured after 5 hrs by ELISA relative to control; assay type: functional; settings: route subcutaneous
[18] = test system: Rattus norvegicus; assay: Antialzheimer activity in rat assessed as amyloid beta (1 to 40) level in CSF at 5 mg/kg, sc measured after 5 hrs by ELISA relative to control; assay type: functional; settings: route subcutaneous
[19] = test system: Rattus norvegicus; assay: Antialzheimer activity in rat assessed as amyloid beta (1 to 40) level in brain at 40 mg/kg, sc preadministered with ABT measured after 5 hrs by ELISA relative to control; assay type: functional; settings: route subcutaneous
[20] = test system: Rattus norvegicus; assay: Antialzheimer activity in rat assessed as amyloid beta (1 to 40) level in brain at 15 mg/kg, sc measured after 5 hrs by ELISA relative to control; assay type: functional; settings: route subcutaneous
[21] = test system: Rattus norvegicus; assay: Antialzheimer activity in sc dosed rat assessed as reduction in amyloid beta (1 to 40) level in plasma measured after 5 hrs by ELISA relative to control; assay type: functional, organism-based
[22] = test system: Rattus norvegicus; assay: Antialzheimer activity in rat assessed as amyloid beta (1 to 40) level in brain at 5 mg/kg, sc measured after 5 hrs by ELISA relative to control; assay type: functional; settings: route subcutaneous
[23] = test system: Rattus norvegicus; assay: Antialzheimer activity in rat assessed as amyloid beta (1 to 40) level in plasma at 40 mg/kg, sc preadministered with ABT measured after 5 hrs by ELISA relative to control; assay type: functional; settings: route subcutaneous
[24] = test system: Rattus norvegicus; assay: Antialzheimer activity in rat assessed as amyloid beta (1 to 40) level in plasma at 15 mg/kg, sc measured after 5 hrs by ELISA relative to control; assay type: functional; settings: route subcutaneous
[25] = test system: Rattus norvegicus; assay: Antialzheimer activity in rat assessed as amyloid beta (1 to 40) level in plasma at 5 mg/kg, sc measured after 5 hrs by ELISA relative to control; assay type: functional; settings: route subcutaneous
[26] = biological target: Voltage-gated inwardly rectifying potassium channel KCNH2 (Homo sapiens, UniProt Q12809); assay: Activity at human ERG channel by fluorescence-based thallium flux assay
[27] = biological target: T2, Beta-secretase 1; assay: Ratio of IC50 for BACE1 in HEK293 cells expressing APP 695 Swedish mutant to Ki for BACE1; assay type: cell-based
[28] = biological target: T2, Beta-secretase 1; assay: Inhibition of BACE1 in human HEK293 cells expressing APP 695 Swedish mutant assessed as inhibition of amyloid beta (1 to 40) production after overnight incubation by ELISA; assay type: cell-based
[29] = biological target: T2, Beta-secretase 1; assay: Displacement of [3H]BMS-599240 from BACE1 expressed in HEK293 cells; assay type: cell-based

T2 sequence (P56817 whole entry): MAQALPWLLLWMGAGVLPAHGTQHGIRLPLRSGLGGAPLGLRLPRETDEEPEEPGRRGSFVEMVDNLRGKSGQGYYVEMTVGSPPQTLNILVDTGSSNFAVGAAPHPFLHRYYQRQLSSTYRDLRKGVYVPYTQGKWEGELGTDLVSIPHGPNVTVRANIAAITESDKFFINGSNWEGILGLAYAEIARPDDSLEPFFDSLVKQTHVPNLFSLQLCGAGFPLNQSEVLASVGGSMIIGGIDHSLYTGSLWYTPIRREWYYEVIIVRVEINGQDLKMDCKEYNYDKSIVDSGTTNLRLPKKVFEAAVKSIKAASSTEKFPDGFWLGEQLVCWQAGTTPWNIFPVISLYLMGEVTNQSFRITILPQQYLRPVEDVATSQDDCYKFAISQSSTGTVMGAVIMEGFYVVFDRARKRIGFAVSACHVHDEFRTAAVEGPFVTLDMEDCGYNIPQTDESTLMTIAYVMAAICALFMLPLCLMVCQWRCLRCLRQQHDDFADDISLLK
Voltage-gated inwardly rectifying potassium channel KCNH2, sequence (Q12809 whole entry): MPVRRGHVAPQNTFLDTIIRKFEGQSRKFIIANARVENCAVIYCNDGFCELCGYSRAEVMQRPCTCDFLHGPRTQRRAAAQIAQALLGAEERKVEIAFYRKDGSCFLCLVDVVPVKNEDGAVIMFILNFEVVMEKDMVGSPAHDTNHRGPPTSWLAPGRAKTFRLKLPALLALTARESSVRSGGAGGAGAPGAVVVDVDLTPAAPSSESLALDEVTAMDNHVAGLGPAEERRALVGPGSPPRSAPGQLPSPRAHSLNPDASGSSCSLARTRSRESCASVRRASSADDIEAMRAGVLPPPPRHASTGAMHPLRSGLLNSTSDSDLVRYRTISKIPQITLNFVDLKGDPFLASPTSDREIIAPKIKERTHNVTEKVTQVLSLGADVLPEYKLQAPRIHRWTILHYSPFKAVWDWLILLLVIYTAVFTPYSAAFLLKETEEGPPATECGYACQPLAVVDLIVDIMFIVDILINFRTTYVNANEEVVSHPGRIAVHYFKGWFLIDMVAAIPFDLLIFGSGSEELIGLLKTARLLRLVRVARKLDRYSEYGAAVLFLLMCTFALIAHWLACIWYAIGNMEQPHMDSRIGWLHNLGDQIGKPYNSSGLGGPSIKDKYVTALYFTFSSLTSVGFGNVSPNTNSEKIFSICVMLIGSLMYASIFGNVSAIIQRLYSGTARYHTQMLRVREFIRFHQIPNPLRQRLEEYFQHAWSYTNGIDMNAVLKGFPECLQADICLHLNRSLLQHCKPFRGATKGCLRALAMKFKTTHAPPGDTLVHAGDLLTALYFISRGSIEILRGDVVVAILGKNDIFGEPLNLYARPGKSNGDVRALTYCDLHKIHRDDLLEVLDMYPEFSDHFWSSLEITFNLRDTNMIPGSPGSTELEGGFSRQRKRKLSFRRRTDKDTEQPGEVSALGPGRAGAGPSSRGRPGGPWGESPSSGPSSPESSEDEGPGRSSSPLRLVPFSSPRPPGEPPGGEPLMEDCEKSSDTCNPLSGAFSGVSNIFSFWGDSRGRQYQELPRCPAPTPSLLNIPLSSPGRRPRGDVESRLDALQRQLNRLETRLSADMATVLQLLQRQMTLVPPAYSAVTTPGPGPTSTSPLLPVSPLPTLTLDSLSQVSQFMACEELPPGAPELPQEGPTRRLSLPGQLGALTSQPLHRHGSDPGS
Cathepsin D (Homo sapiens), sequence (P07339 65-162 limits assumed): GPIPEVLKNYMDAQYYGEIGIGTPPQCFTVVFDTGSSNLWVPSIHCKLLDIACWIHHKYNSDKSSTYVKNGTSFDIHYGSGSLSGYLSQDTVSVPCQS
Cathepsin D (Homo sapiens), sequence (P07339 169-412 limits assumed): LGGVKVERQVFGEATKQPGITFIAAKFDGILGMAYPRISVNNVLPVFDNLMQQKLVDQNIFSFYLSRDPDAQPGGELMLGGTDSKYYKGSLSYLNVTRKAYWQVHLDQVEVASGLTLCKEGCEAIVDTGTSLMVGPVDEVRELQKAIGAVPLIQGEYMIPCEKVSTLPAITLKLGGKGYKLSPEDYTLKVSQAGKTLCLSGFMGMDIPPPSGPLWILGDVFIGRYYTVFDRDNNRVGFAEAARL

COc1ccc(-c2nsc(C)c2C(=O)/N=C(\N)NCc2cc(C)c(NC(=O)CN3CCC3)c(Cl)c2)cc1
inhibition [1]: inactive
inhibition [2]: inactive
inhibition [3]: inactive
Ratio IC50 [4]: 36
IC50 [5]: 5 nM
IC50 [6]: 180 nM
concentration at 5 h [7]: 39 nM
concentration at 5 h [8]: 8 nM
concentration at 5 h [9]: 4 nM
concentration at 5 h [10]: 586 nM
concentration at 5 h [11]: 320 nM
concentration at 5 h [12]: 89 nM
concentration at 5 h [13]: 6640 nM
concentration at 5 h [14]: 378 nM
concentration at 5 h [15]: 1170 nM
Activity [16]: 82%
Activity [17]: 98%
Activity [18]: 105%
Activity [19]: 94%
Activity [20]: 102%
Activity [21]: Dose-dependent effect
Activity [22]: 89%
Activity [23]: 4%
Activity [24]: 8%
Activity [25]: 18%
Activity [26]: Not Active
Ratio [27]: 1
IC50 [28]: 5 nM
Ki [29]: 5 nM
